Patent US20090227671A1, “Prevention and treatment of atherosclerosis with lithospermate B” (Industry-Academic Cooperation Foundation, priority 2005, published 2009)

Assays:
Type in all cases: cell-based, Sprague-Dawley rats
ERK1/2 = test: Western blot of ERK1/2 phosphorylation in VSMC induced by PDGF-BB
Experimental: (§1) VSMC was washed with PBS and then dissolved in lysis buffer (25 mM Tris HCl, pH 7.4, 25 mM NaCl, 25 mM NaF, 25 mM sodium pyrophosphate, 1 mM sodium vanadate, 2.5 mM EDTA, 2.5 mM EGTA, 0.05% (wt/vol) Triton X-100, 0.5% (wt/vol) SDS, 0.5% (wt/vol) deoxycholate, 0.5% (wt/vol) Nonidet P-40, […], and 1 mM PMSF). The cells were collected and centrifuged at 13,000 rpm for 15 min and the protein concentration of the resulting supernatant was measured by Bradford assay. The proteins were denatured and were subjected to SDS-PAGE and then blotted onto nitrocellulose membranes. The membranes were placed in 5% (w/v) non-fat dry milk in TBS with 0.1% Tween20 (TBS-T) and then placed at room temperature for 3 hrs. The blots were placed at 4° C. along with anti-ERK1/2 or anti-Akt antibodies (Cell signaling Technologh, Berely. Mass., USA) for 16 hrs. The membranes were washed 4 times with TBS-T, added with anti-rabbit IgG antibody conjugated with horseradish peroxidase (1:2,000 diluent) and then placed at room temperature for 1 hr. The immunoreactive bands detected by ECL reagents were developed by Hyperfilm-ECL (Amersham Life Science, Little Chalfont, UK). The bands showing positive responses were quantitated by densitometry and then compared with that of control.
(§2) In FIG. 1B, it is shown that both U0126 (20 μM) and LY294002 (40 μM) inhibited activities of LDH and MTT induced by PDGF-BB. As a way to investigate the signal transduction pathway involved in VSMC proliferation induced by PDGF-BB, an experiment was conducted to examine whether PDGF-BB activates a relatively lower signal transduction pathway such as ERK1/2 and Akt.

Akt = test: Western blot of Akt phosphorylation in VSMC induced by PDGF-BB; details: for decrease of Akt phosphorylation: 30 μM LAB, 20 mM NAC, 40 μM LY294002, 1 h, then PDGF-BB 10 min, FIG. 4C
Experimental: as §1, §2

[1] = system: vascular smooth muscle cells; test: VSMC proliferation induced by PDGF-BB (LDH and MTT assays); details: data not shown
Source text: Vascular smooth muscle cells ('VSMC' hereinafter) were separated from thoracic aorta of a Sprague-Dawley weighted about 100-150 g by using collagenase digestion method and then cultured them according to the method disclosed in previous studies [[…], et al. Role of p44/p42 MAP kinase in the age-dependent increase in vascular smooth muscle cell proliferation and neointimal formation. Arterioscler Thromb Vasc Biol. Feb. 1 2003; 23(2):204-210.; Hamaguchi A, Kim S, Izumi Y, et al. Contribution of extracellular signal-regulated kinase to angiotensin II-induced transforming growth factor-beta1 expression in vascular smooth muscle cells. Hypertension. July 1999; 34(1):126-131]. […] The VSMC was treated in a culture medium not containing serum for 24 hrs prior to treatment with PDGF-BB, and the reaction according to the presence or absence of PDGF-BB was analyzed after pretreating with LAB or other reagents. […] The cells were then washed twice with PBS, lysed by using 0.5% Triton-X100, and then the activity of lactate dehydronase (LDH) was measured by using CytoTox-ONETM assay kit (Promega, Madison, Wis., USA) with fluorescence at […]. […]

[2] = system: vascular smooth muscle cells; test: VSMC migration induced by PDGF-BB (modified Boyden chamber); details: PDGF-BB 10 ng/mL as chemoattractant, 16 hrs
Experimental: The migration of VSMC with 8 μm of pores was measured by using modified Boyden chamber method [Brown C, Pan X, Hassid A. Nitric oxide and C-type atrial natriuretic peptide stimulate primary aortic smooth muscle cell migration via a cGMP-dependent mechanism: relationship to microfilament dissociation and altered cell morphology. Circ Res. Apr. 2 1999; 84(6):655-667], which utilizes collagen-coated transwell tissue culture inserts consisting of polycarbonate membrane. 3.0×10^6 cells/mL of the above vascular smooth muscle cells were allowed to float in a culture medium without serum, treated with LAB with various concentrations and then cultured at 37° C. for 30 min. Then, the cells were treated with either 0.5 mL DMEM without serum or 0.5 mL DMEM without serum along with PDGF-BB 10 ng/mL and then placed in the lower part of a chamber. 100 μL of the folating materials of the above cells (final 3.0×10^5 cells/well) was added to the upper part of the chamber and cultured at 37° C. for 16 hrs. The cells were then fixed, dyed with hematoxylin, and filters were dried and developed.
It is known that […] plays an important role in proliferation of VSMC as well as development of atherosclerosis. To investigate whether LAB decreases the migration of VSMC induced by PDGF-BB, an experiment was performed as follows by using the aforementioned modified Boyden chamber method.

[3] = system: intracellular reactive oxygen species; test: Intracellular reactive oxygen species in VSMC (DCF fluorescence); details: PDGF-BB 10 ng/mL vs control
Experimental: The amount of reactive oxygen species in cells was measured as described in the previous report [Hamaguchi A, Kim S, Izumi Y, et al. Contribution of extracellular signal-regulated kinase to angiotensin II-induced transforming growth factor-beta1 expression in vascular smooth muscle cells. Hypertension. July 1999; 34(1):126-131]. VSMC was cultured in a culture medium without serum for 24 hrs to stop cell proliferation and then pretreated with LAB with various concentrations of 1, 5, 10, 20, 30 μM for 1 hr. The cells were treated with either 10 ng/mL of PDGF-BB for 10 min or with 100 μM H2O2 for 1 min and then cultured in the presence of 5-(and-6)-chloromethyl-2′,7′-dichlorohydrofluorescein diacetate(CM-H2DCF-DA: Molecular Probes Inc., Eurogene, Oreg., USA) in the dark room for 10 min and cultured cells and generation of reactive oxygen species were observed by using fluorescent microscope.
First, the amount of intracellular reactive oxygen species generated by PDGF-BB was measured by using peroxide-sensitive fluorophore DCF. As shown in FIG. 3A (B-1), the amount of intracellular reactive oxygen species generated by PDGF-BB evaluated with DCF fluorescence was 2.7 times greater. […] In this experiment, LAB was treated with PDGF-BB for 10 min. When LAB was pretreated, the amount of DCF fluorescence was decreased as compared to when it was treated only with PDGF-BB [FIG. 3A(A)]. […] Further, LAB decreased the activity of hydrogen peroxide, which increases the generation of intracellular reactive oxygen species, in proportion to its concentration (FIG. 3A(C)).

Compound: CC(=O)N[C@@H](CS)C(=O)O [NAC, N-acetylcysteine, reference compound]
- decrease of ERK1/2 phosphorylation (ERK1/2; 30 μM LAB, 20 mM NAC, 1 h, then PDGF-BB 10 min, FIG. 5C): 0.6 fold
- decrease of Akt phosphorylation (Akt): 3.4 folds

Compound: O=c1cc(N2CCOCC2)oc2c(-c3ccccc3)cccc12 [LY294002, (2-(4-morpholinyl)-8-phenyl)-4H-1-benzopyran-4-one, reference compound]
- decrease of Akt phosphorylation (Akt): 3.5 folds

Compound: Oc1ccc(-c2nc(-c3ccncc3)c(-c3ccc(F)cc3)[nH]2)cc1 [SB202190, reference compound]
- inhibitory activity against VSMC proliferation induced by PDGF-BB [1]: no distinct inhibitory activity

Compound: PDGF-BB: platelet-derived growth factor (Sigma-Aldrich), stimulus of VSMC proliferation and migration [reference compound]
- increase of VSMC migration [2]: about 60%
- amount of intracellular reactive oxygen species (DCF fluorescence), increase [3]: 2.7 times
- increase of ERK1/2 activity (ERK1/2; treated with PDGF-BB 10 ng/mL, FIG. 5A): 11 folds
- increase of Akt activity (Akt; treated with PDGF-BB 10 ng/mL, FIG. 4A): 7 folds
